Measurements reported in PubChem BioAssay AID1963434 (Molecular Pharmacology Branch, DTP, NCI, 2024).

Tested on: 755483-174-R-J1-PDC complex spheroid growth, percent test/control
Assay: Anticancer human tumor 755483-174-R-J1-PDC patient-derived rhabdomyosarcoma cell line growth inhibition [Asc]
Conditions: for IC50: curve of first compound; for viability, T/C: stronger effect = lower value
In short: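 Stromal components (HUVEC and hMSC) are co-assembled with the cancer cells into multicellular spheroids. Drugs are then added singly or paired, at concentrations falling by half-log increments from a clinically achievable maximum, capped at 10 microM without known Cmax.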

[1] = second compound 0.01 µM, first compound 0.00316 µM
[2] = second compound 0.01 µM, first compound 0.01 µM
[3] = second compound 0.01 µM, first compound 0.0316 µM
[4] = second compound 0.01 µM, first compound 0.1 µM
[5] = second compound 0.01 µM, first compound 0.316 µM
[6] = second compound 0.01 µM, first compound 1 µM
[7] = second compound 0.0316 µM, first compound 0.00316 µM
[8] = second compound 0.0316 µM, first compound 0.01 µM
[9] = second compound 0.0316 µM, first compound 0.0316 µM
[10] = second compound 0.0316 µM, first compound 0.1 µM
[11] = second compound 0.0316 µM, first compound 0.316 µM
[12] = second compound 0.0316 µM, first compound 1 µM
[13] = second compound 0.1 µM, first compound 0.00316 µM
[14] = second compound 0.1 µM, first compound 0.01 µM
[15] = second compound 0.1 µM, first compound 0.0316 µM
[16] = second compound 0.1 µM, first compound 0.1 µM
[17] = second compound 0.1 µM, first compound 0.316 µM
[18] = second compound 0.1 µM, first compound 1 µM
[19] = second compound 0.316 µM, first compound 0.00316 µM
[20] = second compound 0.316 µM, first compound 0.01 µM
[21] = second compound 0.316 µM, first compound 0.0316 µM
[22] = second compound 0.316 µM, first compound 0.1 µM
[23] = second compound 0.316 µM, first compound 0.316 µM
[24] = second compound 0.316 µM, first compound 1 µM
[25] = second compound 1 µM, first compound 0.00316 µM
[26] = second compound 1 µM, first compound 0.01 µM
[27] = second compound 1 µM, first compound 0.0316 µM
[28] = second compound 1 µM, first compound 0.1 µM
[29] = second compound 1 µM, first compound 0.316 µM
[30] = second compound 1 µM, first compound 1 µM
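Also: spheroids exposed to compounds for seven days before readout.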

In the case of `CCN1CCN(Cc2ccc(Nc3ncc(F)c(-c4cc(F)c5nc(C)n(C(C)C)c5c4)n3)nc2)CC1` + CNC(C)C(=O)NC1CN(S(=O)(=O)c2cccc(S(=O)(=O)N3CCC4CCC(C(=O)NC(c5ccccc5)c5ccccc5)N4C(=O)C(NC(=O)C(C)NC)C3)c2)CCC2CCC(C(=O)NC(c3ccccc3)c3ccccc3)N2C1=O, the IC50 (second compound 0.01 µM) is reported as < 3.16 nM, the IC50 (second compound 0.0316 µM) is reported as < 3.16 nM and the IC50 (second compound 0.1 µM) is reported as > 1000 nM. For the same compound, the IC50 (second compound 0.316 µM) was < 3.16 nM, the IC50 (second compound 1 µM) was < 3.16 nM and the viability, T/C [1] was 31.1%. For the same compound, the viability, T/C [2] was 66%, the viability, T/C [3] was 53.4% and the viability, T/C [4] was 54.2%. The viability, T/C [5] was 61%, the viability, T/C [6] was 74.4% and the viability, T/C [7] was 43.8%. For the same compound, the viability, T/C [8] was 33.8%, the viability, T/C [9] was 40.6% and the viability, T/C [10] was 40.5%. It also gave a viability, T/C [11] of 63.8%, a viability, T/C [12] of 69.5% and a viability, T/C [13] of 58.5%. For the same compound, the viability, T/C [14] was 37.7%, the viability, T/C [15] was 55.4% and the viability, T/C [16] was 59.5%. For the same compound, the viability, T/C [17] was 47.8%, the viability, T/C [18] was 57.5% and the viability, T/C [19] was 16.2%. It also gave a viability, T/C [20] of 37.3%, a viability, T/C [21] of 40.9% and a viability, T/C [22] of 31%. The viability, T/C [23] was 47.5%, the viability, T/C [24] was 39.9% and the viability, T/C [25] was 32.1%. For the same compound, the viability, T/C [26] was 18.2%, the viability, T/C [27] was 26.8% and the viability, T/C [28] was 18.6%. For the same compound, the viability, T/C [29] was 26.1% and the viability, T/C [30] was 32.3%.

`COc1c(OCCCN2CCOCC2)ccc2c3n(c(=NC(=O)c4cnc(N)nc4)nc12)CCN3` + CNC(C)C(=O)NC1CN(S(=O)(=O)c2cccc(S(=O)(=O)N3CCC4CCC(C(=O)NC(c5ccccc5)c5ccccc5)N4C(=O)C(NC(=O)C(C)NC)C3)c2)CCC2CCC(C(=O)NC(c3ccccc3)c3ccccc3)N2C1=O was tested, and the IC50 (second compound 0.01 µM) was 21.4 nM, the IC50 (second compound 0.0316 µM) was < 3.16 nM and the IC50 (second compound 0.1 µM) was < 3.16 nM. For the same compound, the IC50 (second compound 0.316 µM) was < 3.16 nM, the IC50 (second compound 1 µM) was < 3.16 nM and the viability, T/C [1] was 59.1%. The viability, T/C [2] was 59.4%, the viability, T/C [3] was 45.7% and the viability, T/C [4] was 20.4%. For the same compound, the viability, T/C [5] was 8.95%, the viability, T/C [6] was 3.6% and the viability, T/C [7] was 41.9%. For the same compound, the viability, T/C [8] was 56.3%, the viability, T/C [9] was 40.2% and the viability, T/C [10] was 19%. It also gave a viability, T/C [11] of 5.22%, a viability, T/C [12] of 3.87% and a viability, T/C [13] of 36%. It also gave a viability, T/C [14] of 43.2%, a viability, T/C [15] of 35.6% and a viability, T/C [16] of 11.6%. The viability, T/C [17] was 6.95%, the viability, T/C [18] was 3.25% and the viability, T/C [19] was 32%. The viability, T/C [20] was 29.7%, the viability, T/C [21] was 51% and the viability, T/C [22] was 13.7%. It also gave a viability, T/C [23] of 6.6%, a viability, T/C [24] of 1.75% and a viability, T/C [25] of 35.4%. The viability, T/C [26] was 16.7%, the viability, T/C [27] was 24.5% and the viability, T/C [28] was 27.5%. For the same compound, the viability, T/C [29] was 22.7% and the viability, T/C [30] was 1.36%.

In the case of `NC(=O)C(=Cn1cnc(-c2cc(C(F)(F)F)cc(C(F)(F)F)c2)n1)c1cncnc1` + CNC(C)C(=O)NC1CN(S(=O)(=O)c2cccc(S(=O)(=O)N3CCC4CCC(C(=O)NC(c5ccccc5)c5ccccc5)N4C(=O)C(NC(=O)C(C)NC)C3)c2)CCC2CCC(C(=O)NC(c3ccccc3)c3ccccc3)N2C1=O, the IC50 (second compound 0.01 µM) is reported as 2.6 nM, the IC50 (second compound 0.0316 µM) is reported as 1.67 nM and the IC50 (second compound 0.1 µM) is reported as < 0.949 nM. For the same compound, the IC50 (second compound 0.316 µM) was < 0.949 nM, the IC50 (second compound 1 µM) was < 0.949 nM and the viability, T/C (second compound 0.01 µM, first compound 0.000949 µM) was 73.8%. The viability, T/C (second compound 0.01 µM, first compound 0.003 µM) was 46.7%, the viability, T/C (second compound 0.01 µM, first compound 0.00949 µM) was 15.2% and the viability, T/C (second compound 0.01 µM, first compound 0.03 µM) was 5.78%. It also gave a viability, T/C (second compound 0.01 µM, first compound 0.0949 µM) of 4.79%, a viability, T/C (second compound 0.01 µM, first compound 0.3 µM) of 3.74% and a viability, T/C (second compound 0.0316 µM, first compound 0.000949 µM) of 63.4%. It also gave a viability, T/C (second compound 0.0316 µM, first compound 0.003 µM) of 36.2%, a viability, T/C (second compound 0.0316 µM, first compound 0.00949 µM) of 13.5% and a viability, T/C (second compound 0.0316 µM, first compound 0.03 µM) of 6.2%. For the same compound, the viability, T/C (second compound 0.0316 µM, first compound 0.0949 µM) was 6.42%, the viability, T/C (second compound 0.0316 µM, first compound 0.3 µM) was 22% and the viability, T/C (second compound 0.1 µM, first compound 0.000949 µM) was 41.2%. It also gave a viability, T/C (second compound 0.1 µM, first compound 0.003 µM) of 35.9%, a viability, T/C (second compound 0.1 µM, first compound 0.00949 µM) of 7.59% and a viability, T/C (second compound 0.1 µM, first compound 0.03 µM) of 6.43%. It also gave a viability, T/C (second compound 0.1 µM, first compound 0.0949 µM) of 4.59%, a viability, T/C (second compound 0.1 µM, first compound 0.3 µM) of 3.8% and a viability, T/C (second compound 0.316 µM, first compound 0.000949 µM) of 26.7%. It also gave a viability, T/C (second compound 0.316 µM, first compound 0.003 µM) of 21%, a viability, T/C (second compound 0.316 µM, first compound 0.00949 µM) of 22% and a viability, T/C (second compound 0.316 µM, first compound 0.03 µM) of 4.35%. For the same compound, the viability, T/C (second compound 0.316 µM, first compound 0.0949 µM) was 26.3%, the viability, T/C (second compound 0.316 µM, first compound 0.3 µM) was 2.93% and the viability, T/C (second compound 1 µM, first compound 0.000949 µM) was 28.7%. For the same compound, the viability, T/C (second compound 1 µM, first compound 0.003 µM) was 17.9%, the viability, T/C (second compound 1 µM, first compound 0.00949 µM) was 22.5% and the viability, T/C (second compound 1 µM, first compound 0.03 µM) was 2.28%. It also gave a viability, T/C (second compound 1 µM, first compound 0.0949 µM) of 3.49% and a viability, T/C (second compound 1 µM, first compound 0.3 µM) of 1.7%.

`NC1CCC(NC2CC2c2ccccc2)CC1` (stereo not given) + CNC(C)C(=O)NC1CN(S(=O)(=O)c2cccc(S(=O)(=O)N3CCC4CCC(C(=O)NC(c5ccccc5)c5ccccc5)N4C(=O)C(NC(=O)C(C)NC)C3)c2)CCC2CCC(C(=O)NC(c3ccccc3)c3ccccc3)N2C1=O was tested, and the IC50 (second compound 0.01 µM) was < 0.316 nM, the IC50 (second compound 0.0316 µM) was < 0.316 nM and the IC50 (second compound 0.1 µM) was < 0.316 nM. For the same compound, the IC50 (second compound 0.316 µM) was < 0.316 nM, the IC50 (second compound 1 µM) was < 0.316 nM and the viability, T/C (second compound 0.01 µM, first compound 0.000316 µM) was 27.4%. It also gave a viability, T/C (second compound 0.01 µM, first compound 0.001 µM) of 38.9%, a viability, T/C [1] of 36.8% and a viability, T/C [2] of 48.5%. The viability, T/C [3] was 50.3%, the viability, T/C [4] was 45.1% and the viability, T/C (second compound 0.0316 µM, first compound 0.000316 µM) was 36.4%. For the same compound, the viability, T/C (second compound 0.0316 µM, first compound 0.001 µM) was 24.9%, the viability, T/C [7] was 31.8% and the viability, T/C [8] was 37.5%. It also gave a viability, T/C [9] of 28.9%, a viability, T/C [10] of 30% and a viability, T/C (second compound 0.1 µM, first compound 0.000316 µM) of 32.6%. For the same compound, the viability, T/C (second compound 0.1 µM, first compound 0.001 µM) was 27.7%, the viability, T/C [13] was 33.4% and the viability, T/C [14] was 31.4%. It also gave a viability, T/C [15] of 45.8%, a viability, T/C [16] of 28.4% and a viability, T/C (second compound 0.316 µM, first compound 0.000316 µM) of 26.7%. For the same compound, the viability, T/C (second compound 0.316 µM, first compound 0.001 µM) was 33.6%, the viability, T/C [19] was 37.8% and the viability, T/C [20] was 29.1%. The viability, T/C [21] was 21.3%, the viability, T/C [22] was 29.5% and the viability, T/C (second compound 1 µM, first compound 0.000316 µM) was 25.9%. For the same compound, the viability, T/C (second compound 1 µM, first compound 0.001 µM) was 8.86%, the viability, T/C [25] was 23.5% and the viability, T/C [26] was 20%. For the same compound, the viability, T/C [27] was 21.7% and the viability, T/C [28] was 25.7%.
